Data reported in US11345912B2, “Directed evolution of multivalent glycopeptides that tightly bind to target proteins” (Brandeis University, priority 2013, dated 2022).

Target: 2G12
Experiment: BioLayer Interferometry (BLI) of 2G12 binding to surface-immobilized synthetic glycopeptide
Settings: Table 6; evaluated by BLI, material prepared synthetically
Method: Biotinylation of 10F2 glycopeptide and determination of 2G12 binding by BLI (BioLayer Interferometry): 200 μg 10F2 glycopeptide in 5.5 μL water was treated with […] of 50 mM TCEP.HCl/1M Tris-HCl buffer, pH 7.8, under argon, using the same inert gas setup employed in the click procedure. After 4.5 h, the reaction mixture was injected into HPLC (Waters Symmetry, 300 C4, 5 μm, 4.6×250 mm, 1 mL/min, 2-42% over 60 min, retention time 46.8 min).
The 2G12 binding of the resulting biotinylated glycopeptide 3 was determined using a BLItz instrument (Fortebio). Biotin-10F2 was loaded (120 sec) onto a streptavidin biosensor as a 500 nM solution in Buffer 1 (20 mM Tris pH 7.5, 150 mM NaCl, 2 mM MgSO4, 0.20 mg/mL BSA, 0.02% Tween-20). The sensor was washed with Buffer 1 for 60 sec, after which time the net response due to loading was observed as 0.2 nm. The sensor was then equilibrated with Buffer 2 (20 mM Tris pH 7.5, 150 mM NaCl, 2 mM MgSO4, 2.0 mg/mL BSA, 0.1% v/v Tween-20) for 90 sec. 2G12 (prepared in Buffer 2) was associated at several concentrations (0.5, 1, 2, 4, 8, 16, 32 nM, in random order) for 600 sec, followed by dissociation into blank Buffer 2 for 600 sec. […]

`CC[C@H](C)[C@H](NC(=O)[C@@H](NC(=O)[C@@H](NC(=O)[C@H](Cc1c[nH]cn1)NC(=O)[C@H](CC(N)=O)NC(=O)[C@H](CC(=O)O)NC(=O)[C@H](CCc1cn(C2CCC(OC3O[C@H](CO[C@H]4O[C@H](CO[C@H]5O[C@H](CO)[C@@H](O)[C@H](O)[C@@H]5O[C@H]5O[C@H](CO)[C@@H](O)[C@H](O)[C@@H]5O)[C@@H](O)[C@H](O[C@H]5O[C@H](CO)[C@@H](O)[C@H](O)[C@@H]5O[C@H]5O[C@H](CO)[C@@H](O)[C@H](O)[C@@H]5O)[C@@H]4O)[C@@H](O)[C@H](O[C@H]4O[C@H](CO)[C@@H](O)[C@H](O)[C@@H]4O[C@H]4O[C@H](CO)[C@@H](O)[C@H](O)[C@@H]4O[C@H]4O[C@H](CO)[C@@H](O)[C@H](O)[C@@H]4O)[C@@H]3O)CC2)nn1)NC(=O)[C@@H](NC(=O)[C@H](CCCCN)NC(=O)[C@H](CCC(=O)O)NC(=O)[C@H](CCCNC(=N)N)NC(=O)[C@H](CCCCN)NC(=O)[C@H](CO)NC(=O)[C@H](CC(N)=O)NC(=O)[C@@H](NC(=O)[C@H](CCCCN)NC(=O)[C@@H](NC(=O)[C@H](C)NC(=O)[C@H](CCc1cn(C2CCC(OC3O[C@H](CO[C@H]4O[C@H](CO[C@H]5O[C@H](CO)[C@@H](O)[C@H](O)[C@@H]5O[C@H]5O[C@H](CO)[C@@H](O)[C@H](O)[C@@H]5O)[C@@H](O)[C@H](O[C@H]5O[C@H](CO)[C@@H](O)[C@H](O)[C@@H]5O[C@H]5O[C@H](CO)[C@@H](O)[C@H](O)[C@@H]5O)[C@@H]4O)[C@@H](O)[C@H](O[C@H]4O[C@H](CO)[C@@H](O)[C@H](O)[C@@H]4O[C@H]4O[C@H](CO)[C@@H](O)[C@H](O)[C@@H]4O[C@H]4O[C@H](CO)[C@@H](O)[C@H](O)[C@@H]4O)[C@@H]3O)CC2)nn1)NC=O)[C@@H](C)O)[C@@H](C)O)[C@@H](C)O)C(C)C)[C@@H](C)O)C(=O)N[C@@H](CCc1cn(C2CCC(OC3O[C@H](CO[C@H]4O[C@H](CO[C@H]5O[C@H](CO)[C@@H](O)[C@H](O)[C@@H]5O[C@H]5O[C@H](CO)[C@@H](O)[C@H](O)[C@@H]5O)[C@@H](O)[C@H](O[C@H]5O[C@H](CO)[C@@H](O)[C@H](O)[C@@H]5O[C@H]5O[C@H](CO)[C@@H](O)[C@H](O)[C@@H]5O)[C@@H]4O)[C@@H](O)[C@H](O[C@H]4O[C@H](CO)[C@@H](O)[C@H](O)[C@@H]4O[C@H]4O[C@H](CO)[C@@H](O)[C@H](O)[C@@H]4O[C@H]4O[C@H](CO)[C@@H](O)[C@H](O)[C@@H]4O)[C@@H]3O)CC2)nn1)C(=O)N[C@@H](CCCNC(=N)N)C(=O)N[C@@H](CO)C(=O)N[C@H](C(=O)N1CCC[C@H]1C(=O)N[C@@H](Cc1c[nH]c2ccccc12)C(=O)N[C@@H](Cc1ccc(O)cc1)C(=O)N[C@H](C(=O)N[C@@H](Cc1ccc(O)cc1)C(=O)N[C@@H](CCCNC(=N)N)C(=O)N[C@@H](Cc1c[nH]c2ccccc12)C(=O)N[C@@H](CC(C)C)C(=O)N1CCC[C@H]1C(=O)N[C@@H](CC(N)=O)C(=O)NCC(=O)N[C@@H](CO)C(=O)NCC(=O)N[C@@H](CO)C(=O)NCC(=O)N[C@@H](CS)C(=O)N[C@@H](C)C(=O)O)[C@@H](C)O)[C@@H](C)CC` (stereo partly shown) [Clone 10V1-C7S, XATKTNSKREKTXDNHVTIXRSIPWYTYRWLPN] showed a Kd of 5.6 nM.
